Source: patent US4956463A, “Pyrimidone compound and pharmaceutically acceptable salts thereof” (Ikeda Mohando Company, Ltd., priority 1987, dated 1990)
Where two headings read alike, the source gives them in different places.

How the values were obtained:
Ethanol-Induced Ulcer = assay: Inhibitory Effect on Ethanol-Induced Ulcer; type: in vivo, male Wister rats; settings: for inhibition in vivo at 30 mg/kg: Rattus norvegicus, po, 1 h, read-out: I.R. of Ethanol-Induced Ulcer
Method: (B) Inhibitory Effect of the Compounds of the Present Invention on Ethanol-Induced Ulcer
This test was performed in the manner similar to the method of Robert A. (Gastroenterology, 1975, Vol. 69, pp. 1045-1047). 30 mg/kg of the compound of this invention was orally administered to male Wister rats having a body weight of about 160 g after 24 hours fasting and after additional 30 minutes, 1 ml/animal of 100% ethanol was orally administered One hour after, the stomach was dissected out and was fixed with formalin, Then, the length of the hemorrhagic ulcers generated at the front portion of the stomach was measured by means of a microscope and these were defined as the coefficient of ulcer (U.C.). [formula]
The results obtained are listed in Table II in which the values found are expressed in the average of 5 measurements.

[1] = tested on: Gastric Acid Secretion Accelerated by Histamine in Pylorus-ligated Rats; assay: Inhibitory Effect on Gastric Acid Secretion by Histamine in Pylorus-ligated Rats; type: in vivo, male Wister rat; settings: dose 2 mg/kg s.c.; histamine 3 mg/kg s.c. 30 min later; average of 5 measurements; ** P < 0.01 vs control group (all values marked **)
Method: A male Wister rat having a body weight of about 160 g and which had not fed for 24 hours was anesthetized by an intraperitonea dose of 1.2 g/kg of urethane. After ligating of pylorus and esophagus, gaster anterior was incised and fitted with a double polyethylene wall cannula. The wall of the stomach was rinsed with saline (5 ml each) at 30 minutes intervals, and the amount of gastric acid present in the rinsing solution were determined by titration technique.
The basal amount of secreted gastric acid was initially measured three times, then 2 mg/kg of each of compounds of the invention was administered subcutaneously and 3 mg/kg of histamine was subcutaneously administered after the lapse of an additional 30 minutes.
The quantity of gastric acid secreted after the operation was measured continuously for 3 hours. Within that measurement interval, three time points at which the increase in acid secretion reached a maximum level were selected, and the average quantity of gastric acid secreted at those time points was taken as the increase in acid secretion, which was compared with the increase in acid secretion of the control group to calculate the percent inhibition for secretion of gastric acid. [formula]

[2] = 30 mg/kg p.o., 100% ethanol 1 ml/animal p.o. 30 min later, average of 5 measurements, ** P < 0.01 vs control group (Ex. 18 and Cimetidine unmarked)

SMILES | inhibition in vivo at 30 mg/kg (Ethanol-Induced Ulcer; [2]) | Gastric Acid Secretion in Rats, Rate of inhibition [1] | inhibition in vivo at 30 mg/kg (Ethanol-Induced Ulcer) | inhibitory effect for damages with ethanol (Ethanol-Induced Ulcer; in words, as shown in Table II)
Cc1[nH]c(NC/C=C\COc2cccc(CN3CCCCC3)c2)nc(=O)c1Cc1ccccc1 [Ex. 14, 5-Benzyl-6-methyl-2-[4-<3-(I-piperidinomethyl)-phenoxy>-cis-2-butenylamino]-4-(1H)-pyrimidone] | 87% | – | – | –
Cc1[nH]c(NC/C=C\COc2cc(CN3CCCCC3)ccn2)nc(=O)c1Cc1ccccc1 [Ex. 13] | 56% | – | – | –
CN/C(=N/CCSCc1nc[nH]c1C)NC#N [Cimetidine, reference compound] | – | 70% | -22.4% | not observed
Cc1[nH]c(NC/C=C\COc2cc(CN3CCCCC3)ccn2)nc(=O)c1Cc1ccc2c(c1)OCO2 [Ex. 16, 5-(3,4-methylenedioxy)-benzyl-6-methyl-2-[4-<4-(1-piperidinomethyl)-pyridyl-2-oxy>-cis-2-butenylamino]-4-(1H)-pyrimidone] | 58% | – | – | –
COc1ccc(Cc2c(C)[nH]c(NC/C=C\COc3cccc(CN4CCCCC4)c3)nc2=O)cc1 [Ex. 17, 5-(p-methoxybenzyl)-6-methyl-2-[4-<3-(1-piperidino-methyl)-phenoxy>-cis-2-butenylamino]-4-(1H)-pyrimidone] | 78% | – | – | –
CCCCCCCCCCCCc1c(C)[nH]c(NC/C=C\COc2cccc(CN3CCCCC3)c2)nc1=O [Ex. 10, 5-Dodecyl-6-methyl-2-[4-<3-(1-piperidinomethyl)-phenoxy>-cis-2-butenylamino]-4-(1H)-pyrimidone] | 73% | 36% | – | –
CCCCCCCc1c(C)[nH]c(NC/C=C\COc2cccc(CN3CCCCC3)c2)nc1=O [Ex. 7] | 61% | – | – | –
CCCc1[nH]c(NC/C=C\COc2cccc(CN3CCCCC3)c2)nc(=O)c1Cc1ccc2c(c1)OCO2 [Ex. 18] | 45% | – | – | –
Cc1[nH]c(NC/C=C\COc2cccc(CN3CCCCC3)c2)nc(=O)c1C [Ex. 3, 5,6-Dimethyl-2-[4-<3-(1-piperidinomethyl)-phenoxy>-cis-2-butenylamino]-4-(1H)-pyrimidone] | 80% | 70% | – | –
Cc1[nH]c(NC/C=C\COc2cc(CN3CCCCC3)ccn2)nc(=O)c1CCc1ccccc1 [Ex. 11, 5-Phenethyl-6-methyl-2-[4-<4-(1-piperidinomethyl)-pyridyl-2-oxy>-cis-2-butenylamino]-4-(1H)-pyrimidone] | 79% | 47% | – | –
Cc1[nH]c(NC/C=C\COc2cc(CN3CCCCC3)ccn2)nc(=O)c1C [Ex. 1, 5,6-Dimethyl-2-[4-<4-(1-piperidinomethyl)-pyridyl-2-oxy>-cis-2-butenylamino]-4-(1H)-pyrimidone] | 65% | 59% | – | –
